Measured values from US20120329770A1, “CEPHALOSPORIN DERIVATIVES USEFUL AS BETA-LACTAMASE INHIBITORS AND COMPOSITIONS AND METHODS OF USE THEREOF” (priority 2010, published 2012).

Assays:
[1] = test system: Chryseobacterium meningosepticum IS 5824; assay: Antimicrobial MIC / checkerboard assay for synergy with meropenem; assay type: cell-based; settings: for FIC: meropenem + compound, checkerboard
Experimental: (§1) Assays were conducted as described by Weigand et al. (Weigand, I.; Hilpert, K.; Hancock, R. E. Nat. Protocols 2008, 3, 163-175).
(§2) To determine the lowest concentration of an antimicrobial agent that inhibits visible growth of a microorganism, 50 μL of compound solution and 50 μL of buffer solution were added to each well at the desired concentration(s) (i.e. 4×the final concentration) as well as a zero control. Stock solutions of 10 mg/mL, were prepared in DMSO, followed by two-fold serial dilutions in Müeller-Hinton media and 100 μL of bacteria (ca. 5×10^5 CFU/mL) was added to each well. Plate counts were performed on the control wells to determine bacterial innoculum level. The innoculum was prepared by taking an overnight culture in Müeller-Hinton media and diluting to McFarland's 0.5 standard, and diluting a further 1:100 prior to addition to the plate. Lanes with no bacteria added served as sterility controls and lanes with no compound served as growth controls. Organisms were allowed to grow overnight at 37° C. in a humid environment and the plates were monitored at 625 nm for growth. MIC was determined to be the last well with no growth.
(§3) In the checkerboard assay one compound is serially diluted along the ordinate, and the second compound is serially diluted along the abscissa. […] A 50 μL aliquot of the compound was added to each well at the desired concentration(s) (i.e. 4×the final concentration) as well as a zero control. Stock solutions of 10 mg/mL of compound were prepared in DMSO, followed by two-fold serial dilutions in Müeller-Hinton media. Finally, 100 μL of bacteria (ca. 5×10^5 CFU/mL) was added to each well. Plate counts were performed on the control wells. Innoculum was prepared by taking an overnight culture in Müeller-Hinton media and diluting to McFarland's 0.5 standard, and diluting a further 1:100 prior to addition to the plate. Lanes with no bacteria added served as sterility controls and lanes with no meropenem or compound served as growth controls. The final volume in each well was 200 μL. The plates were allowed to grow overnight at 37° C. in a humid environment and were monitored at 625 nm for growth. […] Sterility controls and growth controls were included on each plate. The fractional inhibitory concentration (FIC) was determined as follows:
(§4) Results were interpreted in the following way: Synergistic if FIC≦0.5; Additive if […]; Indifferent if […]; Antagonistic if FIC≧2.0.

[2] = test system: Pseudomonas aeruginosa IS 6225; assay: as above; assay type: cell-based; settings: P. aeruginosa IS 6225, meropenem + compound
Experimental: as §1, §2, §3, §4

[3] = test system: Stenotrophomonas maltophilia IS 6081; assay: as above; assay type: cell-based; settings: S. maltophilia IS 6081, meropenem + compound
Experimental: as §1, §2, §3, §4

[4] = test system: Stenotrophomonas maltophilia IS 6069; assay: as above; assay type: cell-based; settings: S. maltophilia IS 6069, meropenem + compound
Experimental: as §1, §2, §3, §4

[5] = test system: Stenotrophomonas maltophilia IS 5568; assay: as above; assay type: cell-based; settings: for FIC: S. maltophilia IS 5568, meropenem + compound, checkerboard
Experimental: as §1, §2
as §3, with “Lanes with no bacteria added served as sterility controls and lanes with no meropenem or compound served as growth controls.” left out
as §4

[6] = test system: Pseudomonas aeruginosa IS 5563; assay: as above; assay type: cell-based; settings: for FIC: P. aeruginosa IS 5563, meropenem + compound, checkerboard
Experimental: as §1, §2
as §3, with “Lanes with no bacteria added served as sterility controls and lanes with no meropenem or compound served as growth controls.” left out
as §4

[7] = test system: Pseudomonas aeruginosa C-10; assay: as above; assay type: cell-based; settings: P. aeruginosa C-10; for FIC: meropenem + compound, checkerboard
Experimental: as §1, §2, §3, §4

IMP-1 = biological target: T1, IMP-1 (Serratia marcescens, UniProt P52699); assay: Inhibition of IMP-1-catalyzed hydrolysis of meropenem in vitro (310 nm); assay type: biochemical; settings: for protection of meropenem from IMP-1-catalyzed hydrolysis in vitro: IMP-1 12 nM, meropenem 200 μM, test substance 100 μM, 310 nm
T1 construct: made in house; host or cells: Escherichia coli BL21(DE3) carrying pCIP4

[8] = biological target: T2, IMP-1 metallo-β-lactamase (Serratia marcescens, UniProt P52699); assay: Inhibition of β-lactamases, nitrocefin hydrolysis; assay type: biochemical
T2 construct: made in house; host or cells: Escherichia coli BL21(DE3) carrying pCIP4
Excerpt: IMP-1 metallo-β-lactamase was expressed in Esherichia coli BL21(DE3) carrying pCIP4 and purified as reported by Laraki et al. (Antimicrob. Agents Chemother. 1999, 43, 902-906). The homogeneity of the protein was confirmed by SDS-PAGE according to the method of Laemmli (Nature 1970, 227, 680-685). The molecular weight of purified IMP-1, Mr=25,112±0.5 Da, as determined by ESI-MS, was in agreement with that deduced from its amino acid sequence (Laraki et al. Antimicrob. Agents Chemother. 1999, 43, 890-901).
Assay conditions for IC50 determinations involved enzyme concentrations ranging between 2 and 6 nM. The concentration used for the nitrocefin substrate was 100 μM. Assays with OXA-10 and OXA-45 were conducted at pH 7.0 with 100 mM sodium phosphate buffer containing 25 mM sodium bicarbonate. Assays with KPC-2 and GC1 were performed at pH 7.0 in 50 mM HEPES buffer and assays with IMP-1 and VIM-2 were performed in the same buffer with the addition of 500 mM NaCl and 1 μM ZnSO4. BSA was used with all enzymes (except OXA-10 and KPC-2) at concentrations of 0.5-1.0 μg/mL.
Inhibitors were pre-incubated for 10 minutes at room temperature with enzyme assay solutions prior to the addition of the nitrocefin. These compounds were dissolved in DMSO and prepared at various concentrations such that the final concentration of DMSO was 1% during the pre-incubation. The reaction was initiated by the addition of the pre-incubated enzyme-cyclobutanone solution (90 μL) to a solution of nitrocefin in buffer (10 μL). Enzymatic activity was determined using the initial rate of increase in absorbance at 482 nm

β-lactamases = assay: β-Lactamase inhibition, result in words; assay type: biochemical
Excerpt: In preferred embodiments, the compounds incorporate a good leaving group at the C3′ carbon that can be readily expelled as an anion. In some embodiments, the leaving group is a C3′-benzoylthio group, which may be substituted or unsubstituted, according to the definitions provided above for substituted or unsubstituted.
This effect correlates with the expected better leaving group ability of the benzoylthio group in the hydrolysis product versus the benzoate group in the comparative compound.

T1 sequence (P52699 19-246 limits assumed): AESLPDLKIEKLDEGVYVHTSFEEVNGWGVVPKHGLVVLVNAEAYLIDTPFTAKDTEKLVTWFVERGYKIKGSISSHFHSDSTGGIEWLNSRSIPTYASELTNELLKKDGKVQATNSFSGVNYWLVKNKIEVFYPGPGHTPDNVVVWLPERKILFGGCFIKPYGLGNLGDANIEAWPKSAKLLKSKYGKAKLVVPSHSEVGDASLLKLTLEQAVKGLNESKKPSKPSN
T2 sequence (P52699 19-246, looked up): as the sequence (P52699 19-246 limits assumed) above

SMILES	FIC ([1]; C. meningosepticum IS 5824)	FIC [2]	FIC [3]	FIC [4]	FIC [5]	FIC [6]	FIC [7]	further results
O=C(Cc1cccs1)N[C@@H]1C(=O)N2C(C(=O)O)=C(CSC(=O)c3ccccc3)CS[C@H]12 [CMPD B]	0.5078	0.375	0.1328	0.1875	0.1289	0.1328	–	–
O=C(Cc1ccc(Cl)cc1)N[C@@H]1C(=O)N2C(C(=O)O)=C(CSC(=O)c3ccccc3)CS[C@H]12 [CMPD D]	0.2578	2	1.03	0.1875	0.126	0.2519	1	–
O=C(Cc1ccc(F)cc1)N[C@@H]1C(=O)N2C(C(=O)O)=C(CSC(=O)c3ccccc3)CS[C@H]12 [CMPD E]	0.2578	2	1.03	0.1875	0.126	0.1269	0.625	–
COc1cccc(CC(=O)N[C@@H]2C(=O)N3C(C(=O)O)=C(CSC(=O)c4ccccc4)CS[C@H]23)c1 [CMPD F]	0.2578	3	0.281	0.1875	0.126	0.2519	1.5	–
CC(=O)SCC1=C(C(=O)O)N2C(=O)[C@@H](NC(=O)Cc3cccs3)[C@H]2SC1 [Example 12, (6R,7R)-3-(acetylthiomethyl)-8-oxo-7-(2-(thiophen-2-yl)acetamido)-5-thia-1-azabicyclo[4.2.0]oct-2-ene-2-carboxylic acid]	–	–	–	–	–	–	–	performance as inhibitor (IMP-1): poor performance
O=C(Cc1ccc(F)cc1)N[C@@H]1C(=O)N2C(C(=O)O)=C(CSC(=O)c3ccccc3)CS[C@H]12 [Example 16, (6R,7R)-3-(benzoylthiomethyl)-7-(2-(4-fluorophenyl)acetamido)-8-oxo-5-thia-1-azabicyclo[4.2.0]oct-2-ene-2-carboxylic acid]	–	–	–	–	–	–	–	protection of meropenem from IMP-1-catalyzed hydrolysis in vitro (IMP-1): good protection
C[C@@H](O)[C@H]1C(=O)N2C(C(=O)O)=C(S[C@@H]3CN[C@H](C(=O)N(C)C)C3)[C@H](C)[C@H]12 [Mero, meropenem, reference compound]	–	–	–	–	–	–	–	MIC Mero Alone ([1]; C. meningosepticum IS 5824): 32 µg/mL; MIC ([1]; Elizabethkingia meningoseptica, IS5824, read-out: MIC Mero Alone, C. meningosepticum IS 5824): 64 µg/mL; MIC ([7]; Pseudomonas aeruginosa, C10, read-out: MIC Mero Alone): 16 µg/mL; MIC ([5]; Stenotrophomonas maltophilia, IS5568, read-out: MIC Mero Alone, S. maltophilia IS 5568): 64 µg/mL; MIC ([6]; Pseudomonas aeruginosa, IS5563, read-out: MIC Mero Alone, P. aeruginosa IS 5563): 64 µg/mL
OC(=S)c1ccccc1 [benzoylthio, reference compound]	–	–	–	–	–	–	–	inhibition of the MBL IMP-1 [8]: poor inhibitor
CO/N=C(\C(=O)N[C@@H]1C(=O)N2C(C(=O)O)=C(CSC(=O)c3ccco3)CS[C@H]12)c1csc(N)n1 [ceftiofur]	–	–	–	–	–	–	–	performance as inhibitor (IMP-1): poor performance; protection of meropenem from IMP-1-catalyzed hydrolysis in vitro (IMP-1): relatively poor protection
O=C(Cc1cccs1)NC1C(=O)N2C(C(=O)O)=C(COC(=O)c3ccccc3)CSC12 (centres unmarked) [oxygen analogue, reference compound]	–	–	–	–	–	–	–	β-lactamase inhibition (β-lactamases): substrate but not an inhibitor
